Parameters in all cases: dose 400 mg/kg, route oral
Holding throughout (conditions): in vivo

The test system of series [1] is Homo sapiens. The experiment in a line: Toxicity in healthy human assessed as diarrhea at 400 mg/kg, po administered as single dose. Format: organism-based.
Series [2] deals with Homo sapiens. The experiment in a line: Toxicity in healthy human assessed as headache at 400 […], po administered as single dose. Format: organism-based.
For series [3], the system named is Homo sapiens. The experiment in a line: Cardiotoxicity in healthy human assessed as change in corrected QT interval at 400 mg/kg, po within 12 hrs by ECG. Format: toxicity, organism-based.
Series [4] has as its system Homo sapiens. The experiment in a line: Toxicity in healthy human assessed as abdominal pain at 400 mg/kg, po administered as single dose. In kind it is organism-based, Abdomen.
Series [5] concerns Homo sapiens. The experiment in a line: Toxicity in healthy human assessed as nausea at 400 […], po administered as single dose. In kind it is organism-based.
Series [6] relates to Homo sapiens. The experiment in a line: Cardiotoxicity in healthy human assessed as change in corrected QT interval at 400 mg/kg, po within 3 hrs by ECG. In kind it is toxicity, organism-based.
For series [7], the system named is Homo sapiens. The experiment in a line: Toxicity in healthy human assessed as dizziness at 400 mg/kg, po administered as single dose. Format: organism-based.

The structures appear in SMILES notation.

As to `COc1c(N2C[C@@H]3CCCN[C@@H]3C2)c(F)cc2c(=O)c(C(=O)O)cn(C3CC3)c12` [MOXIFLOXACIN], the Activity is recorded as 3% with Homo sapiens [1]; 5% in the series on Homo sapiens [2]; 5% in the series with Homo sapiens [4]; 3% in the series on Homo sapiens [5]; “Non-toxic” in the series with Homo sapiens [6]; 0% with Homo sapiens [7]. Besides, the QTc change with Homo sapiens [3] stood at 10 ms.

These data come from ChEMBL document CHEMBL1255486, “Effect of vicriviroc on the QT/corrected QT interval and central nervous system in healthy subjects” (Antimicrob Agents Chemother, 2010).
